Test results from patent US11192889B2, “Tetrahydronaphthyridinepentanamide integrin antagonists” (The Rockefeller University, priority 2016, dated 2021).
pEC50, pIC50: −log10 of the molar value. Values joined by “and” are separate entries in the source; they are usually repeats but may differ in a detail not shown here. Identical values can stand only once.

Key:
[1] = target: T1, HEK-293-αVβ3 cells (Homo sapiens, UniProt P05106+P06756); experiment: αVβ3 Cell Adhesion to Fibrinogen Assay; format: cell-based; design: IC50; other: dose reducing by 50% the adhesion of HEK-293-αVβ3 cells to fibrinogen; untreated cells 100% adhesion, 10 mM EDTA 0%; conditions: for pIC50: dose reducing by 50% the adhesion of HEK-293-αVβ3 cells to fibrinogen, separate determinations listed
Excerpt: (§1) HEK-293 Cells Expressing αVβ3. HEK-293 cells were transfected using lipofectamine 2000 (Invitrogen #11668030) with the cDNA for αV using the pEF1/V5-His A vector and the cDNA for β3 using the vector pcDNA3.1. Cells expressing αVβ3 were identified by their reaction with murine monoclonal antibodies (mAbs) LM609 and 7E3, and stable cell lines were established by repetitive sorting using LM609. […] HEK-293-αVβ3 cells for assays are counted in an automated cell counter (ADVIA 120) and adjusted to values appropriate for each assay.
αVβ3 Cell Adhesion to Fibrinogen Assay. Polystyrene 96-well microtiter plates (Costar, 3590) are precoated with 3.5 μg/mL of purified fibrinogen (Enzyme Research Laboratories) in 0.15 M NaCl, 0.01 M Tris/HCL, pH 7.4 for 1 hour at 37° C. The wells are then washed and incubated with HEPES-Buffered Modified Tyrode's solution (HBMT; 0.128 M NaCl, 10 mM HEPES, 12 mM NaHCO3, 0.4 mM NaH2PO4, 2.7 mM KCl, 0.35% bovine serum albumin (Fisher), 0.1% glucose, pH 7.4) for 1 hour at room temperature or overnight at 4° C. Wells are washed with HBMT containing 1 mM Mg2+ and 2 mM Ca2+ and then 50 μL of HEK-293-αVβ3 cells that have been pretreated with the compound to be tested for 20 minutes at room temperature are added to each well at a concentration of 3,000 cells/μL. After 30-32 minutes the wells are washed with HBMT containing Ca2+ and Mg2+ three times and then the adherent cells are lysed and the acid phosphatase activity that is released is measured by: 1. adding phosphatase substrate (Sigma EC 224-246-5) at 2 mg/mL in 0.1 M Na citrate, pH 5.6, 0.1% triton X-100 for 1 hour at room temperature; 2. stopping the reaction by adding 50 μL of 2 M NaOH; and 3. analyzing the samples in a spectrophotometer at 405 nm. In each assay, 10 mM EDTA is used as a positive control and untreated cells are used as a negative control. The IC50 is the dose of test compound that reduces by 50% the adhesion of the HEK-293-αVβ3 cells, taking the results with untreated cells as 100% and the results in the presence of EDTA as 0%. In some instances more than one IC50 determination was made, in which case, results of separate determinations are reported. IC50's were not determined for all compounds in the table; for some of these test compounds the inhibition at specific doses are reported. In some instances, the test compound produced a greater reduction than 10 mM EDTA, and these are shown as negative numbers.

[2] = target: T1, HEK-293-αVβ3 cells; experiment: AP5 Binding Assay; format: cell-based; conditions: for AP5 expression induced at the highest concentration / activation at 10 µM: @10 μM, relative to AP5 expression induced by cilengitide; for pEC50: concentration inducing 50% of the AP5 expression induced by 1 μM cilengitide; for activation at 10 µM: read-out: AP5 expression induced at the highest concentration
Excerpt: as §1
AP5 Binding Assay. HEK-293-αVβ3 cells are harvested using 0.05% trypsin 0.5 mM EDTA, washed with HBMT once, and resuspended in HBMT containing 1 mM Mg2+ and 2 mM Ca2+. The cells are counted and adjusted to 0.5×10^6 cells per sample. The compound to be tested and fluorescently labeled mAb AP5 (either Alexa 488 or Alexa 674; 10 μg/mL) are added and incubated for 30 minutes at 37° C. The cells are then washed and analyzed by flow cytometry (BD FACSCalibur) at the appropriate wavelength for detecting the AP5 fluorophore. In each assay, cilengitide (1 μM) and 10 mM EDTA are included as positive controls and untreated cells are used as the negative control. The concentration of the test compound required to induce the expression of 50% of the AP5 expression induced by cilengitide is calculated and defined as the EC50. The EC50 for cilengitide was determined based on the expression induced by EDTA.

T1 sequence (P05106 whole entry): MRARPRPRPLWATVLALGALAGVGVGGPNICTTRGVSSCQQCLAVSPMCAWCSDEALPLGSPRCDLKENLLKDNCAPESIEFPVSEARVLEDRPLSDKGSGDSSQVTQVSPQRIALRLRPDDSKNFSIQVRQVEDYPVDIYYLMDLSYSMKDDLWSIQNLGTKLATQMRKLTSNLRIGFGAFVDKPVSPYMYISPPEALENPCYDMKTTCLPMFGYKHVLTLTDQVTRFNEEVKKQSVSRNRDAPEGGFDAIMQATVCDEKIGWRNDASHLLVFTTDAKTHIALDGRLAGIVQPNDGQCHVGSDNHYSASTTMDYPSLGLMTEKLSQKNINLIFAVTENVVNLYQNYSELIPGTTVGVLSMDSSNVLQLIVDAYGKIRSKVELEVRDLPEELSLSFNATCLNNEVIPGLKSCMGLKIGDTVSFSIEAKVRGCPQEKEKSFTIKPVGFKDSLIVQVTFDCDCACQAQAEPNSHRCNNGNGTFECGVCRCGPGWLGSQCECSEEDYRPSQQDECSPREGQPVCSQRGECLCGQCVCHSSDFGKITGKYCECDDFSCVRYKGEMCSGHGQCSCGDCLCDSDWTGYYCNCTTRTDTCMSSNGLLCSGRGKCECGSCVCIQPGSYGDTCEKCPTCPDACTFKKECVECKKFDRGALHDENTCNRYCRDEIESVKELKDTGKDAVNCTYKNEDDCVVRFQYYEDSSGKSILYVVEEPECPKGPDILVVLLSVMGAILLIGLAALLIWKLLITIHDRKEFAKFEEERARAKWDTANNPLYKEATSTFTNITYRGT
T1 sequence (P06756 whole entry): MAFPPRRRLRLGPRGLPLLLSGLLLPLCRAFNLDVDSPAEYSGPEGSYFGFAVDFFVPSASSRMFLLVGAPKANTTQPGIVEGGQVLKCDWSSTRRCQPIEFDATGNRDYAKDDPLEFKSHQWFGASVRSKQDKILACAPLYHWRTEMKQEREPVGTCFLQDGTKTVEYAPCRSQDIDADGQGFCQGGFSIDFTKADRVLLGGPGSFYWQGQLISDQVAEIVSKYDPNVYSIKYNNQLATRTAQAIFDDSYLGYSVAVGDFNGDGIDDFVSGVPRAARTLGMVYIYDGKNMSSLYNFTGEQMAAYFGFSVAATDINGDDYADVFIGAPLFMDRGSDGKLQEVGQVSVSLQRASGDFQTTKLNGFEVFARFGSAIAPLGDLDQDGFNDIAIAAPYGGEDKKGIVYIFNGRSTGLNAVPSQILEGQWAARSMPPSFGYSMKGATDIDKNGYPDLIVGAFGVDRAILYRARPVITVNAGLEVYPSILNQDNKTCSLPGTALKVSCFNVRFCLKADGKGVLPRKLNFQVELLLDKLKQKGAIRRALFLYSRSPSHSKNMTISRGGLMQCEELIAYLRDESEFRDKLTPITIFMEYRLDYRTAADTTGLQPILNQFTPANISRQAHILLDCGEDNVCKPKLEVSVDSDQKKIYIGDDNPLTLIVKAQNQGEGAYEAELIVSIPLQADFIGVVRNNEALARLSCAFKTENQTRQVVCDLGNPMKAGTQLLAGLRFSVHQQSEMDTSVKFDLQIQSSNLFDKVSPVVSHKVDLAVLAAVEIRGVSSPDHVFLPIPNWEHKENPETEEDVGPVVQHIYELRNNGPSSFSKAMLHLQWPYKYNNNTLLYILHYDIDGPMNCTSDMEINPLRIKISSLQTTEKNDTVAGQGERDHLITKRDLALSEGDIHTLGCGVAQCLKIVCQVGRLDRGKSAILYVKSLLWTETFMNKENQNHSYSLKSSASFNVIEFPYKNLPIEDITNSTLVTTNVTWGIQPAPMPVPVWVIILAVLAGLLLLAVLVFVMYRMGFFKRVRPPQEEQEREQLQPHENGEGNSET

Structure (SMILES) | pIC50 [1] | pEC50 [2] | activation at 10 µM [2] | also measured
O=C(CCCCc1ccc2c(n1)NCCC2)NCCC(C(=O)O)c1cnc2ccccc2c1 (single isomer, unassigned) [Example 89, 2-(3-quinolyl)-4-[5-(5,6,7,8-tetrahydro-1,8-naphthyridin-2-yl)pentanoylamino]butanoic acid] | 6.97 | < 5.00 | – | AP5 expression induced at the highest concentration [2]: 27%
O=C(CCCCc1ccc2c(n1)NCCC2)NCCC(C(=O)O)c1cnc2ccccc2c1 (single isomer, unassigned) [Example 90, 2-(3-quinolyl)-4-[5-(5,6,7,8-tetrahydro-1,8-naphthyridin-2-yl)pentanoylamino]butanoic acid] | 6.64 | < 5.00 | – | AP5 expression induced at the highest concentration [2]: 11%
O=C(CCCCc1ccc2c(n1)NCCC2)NCCC(C(=O)O)n1cnc(-c2ccccc2)n1 (single isomer, unassigned) [Example 93, (S or R)-2-(3-phenyl-1,2,4-triazol-1-yl)-4-[5-(5,6,7,8-tetrahydro-1,8-naphthyridin-2-yl)pentanoylamino]-butanoic acid] | 6.54 | < 5.00 | – | –
O=C(CCCCc1ccc2c(n1)NCCC2)NCCC(C(=O)O)n1cnc(-c2ccccc2)n1 (single isomer, unassigned) [Example 94, (S or R)-2-(3-phenyl-1,2,4-triazol-1-yl)-4-[5-(5,6,7,8-tetrahydro-1,8-naphthyridin-2-yl)pentanoylamino]butanoic acid] | 6.43 | – | – | –
O=C(O)CCCNC(=O)CCCCc1ccc2c(n1)NCCC2 [Example 1, 4-[5-(5,6,7,8-tetrahydro-1,8-naphthyridin-2-yl)pentanoylamino]butanoic acid] | 5.87 | < 4.00 | – | –
COC(=O)[C@H](CCNC(=O)CCCCc1ccc2c(n1)NCCC2)NC(=O)OCc1ccccc1 [Example 2, Methyl (2S)-2-(benzyloxycarbonylamino)-4-[5-(5,6,7,8-tetrahydro-1,8-naphthyridin-2-yl)pentanoylamino]butanoate] | 6.54 and 5.77 | < 5.00 | 19% | –
O=C(CCCCc1ccc2c(n1)NCCC2)NCC[C@H](NC(=O)OCc1ccccc1)C(=O)O [Example 3, (2S)-2-(Benzyloxycarbonylamino)-4-[5-(5,6,7,8-tetrahydro-1,8-naphthyridin-2-yl)pentanoylamino]butanoic acid] | 6.84 and 6.32 and 6.16 and 6.44 and 6.49 and 6.46 | < 5.00 | 16% | –
O=C(CCCCc1ccc2c(n1)NCCC2)NCC[C@@H](NC(=O)OCc1ccccc1)C(=O)O [Example 4, (2R)-2-(Benzyloxycarbonylamino)-4-[5-(5,6,7,8-tetrahydro-1,8-naphthyridin-2-yl)pentanoylamino]butanoic acid] | 6.65 and 6.11 and 6.02 and 6.27 and 6.21 and 6.17 | < 5.00 | 5% | –
COC(=O)C(CCNC(=O)CCCCc1ccc2c(n1)NCCC2)NC(=O)OCc1ccccc1 (stereo not drawn) [Example 5, Methyl 2-(benzyloxycarbonylamino)-4-[5-(5,6,7,8-tetrahydro-1,8-naphthyridin-2-yl)pentanoylamino]butanoate] | 5.61 | < 5.00 | 23% | –
COC(=O)[C@@H](CCNC(=O)CCCCc1ccc2c(n1)NCCC2)NC(=O)OCc1ccccc1 [Example 6, Methyl (2R)-2-(benzyloxycarbonylamino)-4-[5-(5,6,7,8-tetrahydro-1,8-naphthyridin-2-yl)pentanoylamino]butanoate] | < 5.00 | – | – | –
O=C(CCCCc1ccc2c(n1)NCCC2)NCCC(NC(=O)OCc1ccccc1)C(=O)O (stereo not drawn) [Example 7, 2-(Benzyloxycarbonylamino)-4-[5-(5,6,7,8-tetrahydro-1,8-naphthyridin-2-yl)pentanoylamino]butanoic acid] | 6.39 and 6.24 and 6.47 and 6.37 | < 5.00 | 15% | –
COC(=O)C(CCNC(=O)CCCCc1ccc2c(n1)NCCC2)c1ccccc1 (stereo not drawn) [Example 8, Methyl 2-phenyl-4-[5-(5,6,7,8-tetrahydro-1,8-naphthyridin-2-yl)pentanoylamino]butanoate] | < 5.00 | – | – | –
O=C(CCCCc1ccc2c(n1)NCCC2)NCCC(C(=O)O)c1ccccc1 (stereo not drawn) [Example 9, 2-Phenyl-4-[5-(5,6,7,8-tetrahydro-1,8-naphthyridin-2-yl)pentanoylamino]butanoic acid] | 5.43 and 5.75 | < 5.00 | 11% | –
COC(=O)C(C)CCNC(=O)CCCCc1ccc2c(n1)NCCC2 (stereo not drawn) [Example 10, Methyl 2-methyl-4-[5-(5,6,7,8-tetrahydro-1,8-naphthyridin-2-yl)pentanoylamino]butanoate] | < 5.00 | – | – | –
COC(=O)C(CCNC(=O)CCCCc1ccc2c(n1)NCCC2)Cc1ccccc1 (stereo not drawn) [Example 11, Methyl 2-benzyl-4-[5-(5,6,7,8-tetrahydro-1,8-naphthyridin-2-yl)pentanoylamino]butanoate] | < 5.00 | – | – | –
CC(CCNC(=O)CCCCc1ccc2c(n1)NCCC2)C(=O)O (stereo not drawn) [Example 12, 2-Methyl-4-[5-(5,6,7,8-tetrahydro-1,8-naphthyridin-2-yl)pentanoylamino]butanoic acid] | < 5.00 | – | – | –
O=C(CCCCc1ccc2c(n1)NCCC2)NCCC(Cc1ccccc1)C(=O)O (stereo not drawn) [Example 13, 2-Benzyl-4-[5-(5,6,7,8-tetrahydro-1,8-naphthyridin-2-yl)pentanoylamino]butanoic acid] | < 5.00 | – | – | –
Cc1ccc(S(=O)(=O)NC(CCNC(=O)CCCCc2ccc3c(n2)NCCC3)C(=O)O)cc1 (stereo not drawn) [Example 14, 2-(p-Tolylsulfonylamino)-4-[5-(5,6,7,8-tetrahydro-1,8-naphthyridin-2-yl)pentanoylamino]butanoic acid] | 5.20 | < 5.00 | 7% | –
O=C(CCCCc1ccc2c(n1)NCCC2)NCCC(NC(=O)c1ccccn1)C(=O)O (stereo not drawn) [Example 25] | > 7.00 | < 5.00 | 16% | –
O=C(CCCCc1ccc2c(n1)NCCC2)NCCC(NC(=O)CO)C(=O)O (stereo not drawn) [Example 34] | > 7.00 | < 5.00 | 32% | –
COC(=O)NC(CCNC(=O)CCCCc1ccc2c(n1)NCCC2)C(=O)O (stereo not drawn) [Example 36] | > 7.00 | < 5.00 | 12% | –
CC(C)COC(=O)NC(CCNC(=O)CCCCc1ccc2c(n1)NCCC2)C(=O)O (stereo not drawn) [Example 38, 2-(Isobutoxycarbonylamino)-4-[5-(5,6,7,8-tetrahydro-1,8-naphthyridin-2-yl)pentanoylamino]butanoic acid] | 6.46 and 6.38 | < 5.00 | 20% | –
O=C(CCCCc1ccc2c(n1)NCCC2)NCCC(NS(=O)(=O)c1ccc2ccccc2c1)C(=O)O (stereo not drawn) [Example 45] | – | – | – | inhibition at specific dose 0.1 ([1]; dose 0.1 (table in μM), untreated cells 100% adhesion, 10 mM EDTA 0%): 40%
O=C(CCCCc1ccc2c(n1)NCCC2)NCCC(NS(=O)(=O)c1ccc(Oc2ccccc2)cc1)C(=O)O (stereo not drawn) [Example 48] | < 5.00 | – | – | –
O=C(CCCCc1ccc2c(n1)NCCC2)NCCC(NC(=O)Nc1ccc(Oc2ccccc2)cc1)C(=O)O (stereo not drawn) [Example 59] | < 5.00 | – | – | –
CC(C)[C@H]1C(=O)N[C@@H](CCCN=C(N)N)C(=O)NCC(=O)N[C@@H](CC(=O)O)C(=O)N[C@H](Cc2ccccc2)C(=O)N1C [cilengitide, reference compound] | – | – | – | AP5 expression ([2]; 1 μM cilengitide, average±SD of 17 experiments): 42.5±8.0 arbitrary fluorescence units
